As usually defined, the GI50 is the concentration that inhibits growth by half.

Holding throughout (assay): DTP human tumour cell line panel, 48 h
Test [1] has as its system CCRF-CEM.
Test [2] concerns HCT-15.
For test [3], the system named is HOP-62.
Test [4] relates to K562.
The subject of test [5] is LOX IMVI.
Test [6] has as its system M14.
The subject of test [7] is NCI-H226.
For test [8], the system named is SF-268.
The test system of test [9] is SF-295.
For test [10], the system named is SK-MEL-2.
For test [11], the system named is SK-MEL-5.
Test [12] deals with SK-OV-3.
The subject of test [13] is SN12C.
Test [14] relates to SR.
In test [15] the test system is TK-10.
Test [16] relates to A498.
In test [17] the test system is CAKI-1.
Test [18] relates to RXF 393.

Molecules are shown by their SMILES.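 Five compound concentrations were applied to cells in 96-well plates for 48 hours; endpoints were derived by simple linear interpolation of the resulting dose-response curve. The concentration for 50% growth inhibition is given as GI50.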 The source made the active and inactive calls. No stated cut-off is given here; in the data, active = GI50 up to about 1.1 µM and inactive = higher.

On to `COC1(OC)CCCCC2c3cccc(OC(C)=O)c3C21OC(C)=O` (stereo unspecified), for which the GI50 in test [1] was > 100 µM (inactive); in test [2], 73.8 µM; in [3], > 100 µM (inactive); in test [4], 55.3 µM (inactive); in [5], > 100 µM (inactive); in test [6] it was > 100 µM (inactive). The GI50 in test [7], in test [8], in test [9], in [10], in test [11] and in test [12] was > 100 µM (inactive) in each case. In addition, the GI50 in test [13] is > 100 µM (inactive); in test [14] it was 59.2 µM (inactive); in test [15], > 100 µM (inactive).
As to `COC(=O)c1c/c(=N\NC(=O)CC(=O)Nc2ccccc2OC)c2ccccc2o1`, the GI50 in [16] is > 100 µM (inactive); in test [17], > 100 µM (inactive); in test [2], over 100 µM; in test [3], > 100 µM (inactive); in [4], 54.2 µM (inactive); in [5] it was 66.8 µM (inactive). Also, the GI50 in test [6] was > 100 µM (inactive); in [7] it was > 100 µM (inactive); in test [8] it was > 100 µM (inactive); in test [10] it was > 100 µM (inactive); in test [11], 91.8 µM (inactive); in test [12] it was > 100 µM (inactive). The GI50 in test [13], in test [14] and in [15] was > 100 µM (inactive) each time.
Turning to `CCOC(=O)C1N(S(=O)(=O)c2ccc(C)cc2)CCC12c1ccccc1N(C(C)=O)C2C(/C=C/C(=O)OC)=C/C(=O)OC` (stereo unspecified), the GI50 is > 100 µM (inactive) in test [16]; > 100 µM (inactive) in [17]; > 100 µM (inactive) in test [1]; > 100 µM (inactive) in [3]; 85.3 µM (inactive) in test [4]; > 100 µM (inactive) in test [5]. Moreover, the GI50 in [6], in [7], in test [18], in test [8], in [9] and in [11] was > 100 µM (inactive) each time. The GI50 in test [12], in test [13] and in test [15] was > 100 µM (inactive) in each case.
`CN(C)CCNc1ccc2ncn3c4ccccc4c(=O)c1c23`: the GI50 in test [16] was 6.93 µM (inactive); in test [17], 2.26 µM (inactive); in [1], 2.25 µM (inactive); in [2] it was 2.85 µM; in test [3] it was 4.46 µM (inactive); in test [4] it was > 100 µM (inactive). The GI50 in test [5] is 1.15 µM (inactive); in test [6] it was 3.11 µM (inactive); in [7] it was 1.91 µM (inactive); in test [8], 1.91 µM (inactive); in test [9] it was 2.47 µM (inactive); in test [10], 2.99 µM (inactive). Also, the GI50 in test [11] is 2.74 µM (inactive); in [12] it was 2.09 µM (inactive); in [13], 2.9 µM (inactive); in test [14] it was 0.822 µM (active); in test [15], 2.93 µM (inactive).
In the case of `COC(=O)C1C(=O)N(CCc2c[nH]c3ccccc23)C[C@@H]2CCC(=O)C[C@H]12` (stereo partly specified), the GI50 in test [16] was > 100 µM (inactive); in [17], > 100 µM (inactive); in test [1] it was > 100 µM (inactive); in test [2] it was over 100 µM; in test [3], > 100 µM (inactive); in test [4], > 100 µM (inactive). For the same compound, the GI50 in [5], in test [6], in test [18], in test [8], in test [9] and in [10] was > 100 µM (inactive) each time. Moreover, the GI50 in test [11], in [12], in test [13] and in test [15] was > 100 µM (inactive) each time.
With `CCOC(=O)c1cc(-c2cc(OC)c(OC)c([N+](=O)[O-])c2)c([N+](=O)[O-])n1C`, the GI50 is 3.24 µM (inactive) in [1]; 4.58 µM in test [2]; 2.83 µM (inactive) in [4]; 8.57 µM (inactive) in test [6]; > 10 µM (inactive) in test [7]; 9.59 µM (inactive) in [18]. The GI50 in [8] is > 10 µM (inactive); in test [9] it was 3.42 µM (inactive); in test [10] it was > 10 µM (inactive); in test [13], 6.7 µM (inactive); in [14], 4.81 µM (inactive); in test [15], > 10 µM (inactive).
As to `COC(=O)C1=CC2OC1(C)C1(CC1)C2=O` (stereo unspecified), the GI50 in test [17] is 16 µM (inactive); in test [1] it was 5.6 µM (inactive); in test [2], 15.9 µM; in test [3], > 100 µM (inactive); in [4] it was 12.2 µM (inactive); in test [5], 14 µM (inactive). Moreover, the GI50 in [6] is 13.5 µM (inactive); in [7], 21.6 µM (inactive); in test [18] it was 15.5 µM (inactive); in [8], 20.3 µM (inactive); in test [9], 19 µM (inactive); in test [10] it was > 10 µM (inactive). Moreover, the GI50 in test [11] is > 10 µM (inactive); in test [12], 76.9 µM (inactive); in test [13], 16.6 µM (inactive); in [14], 10.3 µM (inactive); in test [15], > 10 µM (inactive).
For `NC(=S)N/N=C1\CCCC\C1=C/c1ccccc1`, the GI50 was > 100 µM (inactive) in test [16]; 30.5 µM (inactive) in [1]; 67.1 µM in test [2]; > 100 µM (inactive) in test [3]; 2.71 µM (inactive) in [4]; > 100 µM (inactive) in test [5]. For the same compound, the GI50 was 91 µM (inactive) in test [6]; 23.8 µM (inactive) in test [18]; 54 µM (inactive) in test [8]; > 100 µM (inactive) in [9]; 73.3 µM (inactive) in test [10]; > 100 µM (inactive) in [12]. Further, the GI50 in [13] was 39.5 µM (inactive); in [15], 39.9 µM (inactive).
With `CC1CC2C3CC(F)C4=CC(=O)C=CC4(C)C3(F)C(O)CC2(C)C1(O)C(=O)CO` (stereo unspecified), the GI50 was > 100 µM (inactive) in test [17]; 0.0112 µM (active) in test [1]; over 100 µM in [2]; > 100 µM (inactive) in [3]; > 100 µM (inactive) in [4]; > 100 µM (inactive) in test [5]. In addition, the GI50 in [6], in test [7], in test [18], in test [8], in test [9] and in [10] was > 100 µM (inactive) in each case. The GI50 in [11] is > 100 µM (inactive); in test [12], < 0.01 µM (active); in test [14] it was > 100 µM (inactive); in test [15] it was > 100 µM (inactive).
For the compound `COc1ccc(/C=c2/sc3n(c2=O)NC2(CCCCC2)NN=3)cc1`, the GI50 in test [17], in test [1], in [4], in test [5], in test [6] and in test [7] was > 100 µM (inactive) in each case. Also, the GI50 in [18], in [8], in test [9], in test [10], in test [11] and in [12] was > 100 µM (inactive) each time. For the same compound, the GI50 in test [13], in [14] and in [15] was > 100 µM (inactive) throughout.
For `CCOC(=O)C(C)(C)Oc1ccc2c(=O)cc(-c3ccccc3)oc2c1`, the GI50 in test [16] is > 100 µM (inactive); in test [1], 18 µM (inactive); in [2], 20 µM; in [3], 18.5 µM (inactive); in test [4] it was 13 µM (inactive); in [5], 17.5 µM (inactive). Also, the GI50 was 19.5 µM (inactive) in test [6]; 22.8 µM (inactive) in test [7]; 21.2 µM (inactive) in test [18]; 22.3 µM (inactive) in [8]; 26.5 µM (inactive) in test [9]; 16.9 µM (inactive) in test [10]. For the same compound, the GI50 in test [11] is 14.8 µM (inactive); in test [12], > 100 µM (inactive); in test [13], 32.1 µM (inactive); in test [15], > 100 µM (inactive).
In the case of `CCOc1ccccc1NC(=O)C(=O)CC(=O)c1c(C)[n+]([O-])c2ccccc2[n+]1[O-]`, the GI50 in test [16] is > 100 µM (inactive); in [17] it was > 100 µM (inactive); in test [1] it was 52.8 µM (inactive); in test [2], 67.1 µM; in [3], > 100 µM (inactive); in test [4] it was > 100 µM (inactive). Besides, the GI50 in [5] was 99.3 µM (inactive); in test [6] it was > 100 µM (inactive); in test [7], > 100 µM (inactive); in test [18], > 100 µM (inactive); in [8] it was > 100 µM (inactive); in test [9], > 100 µM (inactive). Also, the GI50 in [10] is > 100 µM (inactive); in [11], 43.9 µM (inactive); in [12], > 100 µM (inactive); in test [13], > 100 µM (inactive); in test [15], > 100 µM (inactive).
For `CC(=O)NC1=C(NCCC(C)C)C(=O)c2ccccc2C1=O`, the GI50 is > 50 µM (inactive) in test [1]; over 50 µM in test [2]; > 50 µM (inactive) in test [3]; > 50 µM (inactive) in test [4]; > 50 µM (inactive) in [5]; > 50 µM (inactive) in test [6]. The GI50 in [7], in test [18], in test [8], in test [9], in [10] and in [11] was > 50 µM (inactive) throughout. The GI50 in test [12], in test [13], in test [14] and in [15] was > 50 µM (inactive) in each case.

(Values after ChEMBL document CHEMBL1201862, “PubChem BioAssay data set” (2004).)
